# From US20240122937A1, “TREATING CANCER IN PATIENT WITH PTEN INACTIVATING MUTATION” (TAIHO PHARMACEUTICAL CO., LTD., priority 2021, published 2024)
# Tests used:
# [1] = Phase 2 clinical study, treatment-related adverse events; format: in vivo, human
# Protocol: (§1) The following examples report the results of phase 2 clinical studies where Compound 1 in tablet form was administered orally to patients with different tumor type. In this trial Compound 1 was administered once/day at a dosage of 16 mg/day or 20 mg/day for a 21 day cycle which was repeated as desired. The compound was also administered intermittently on a schedule of 4 days and 3 days off for 21 days per cycle. The cycle was repeated as desired identifies the adverse events in the trials.
# A total of 8 patients (50%) experienced at least 1 treatment-related event of Grade ≥3; the most frequently reported event of this kind was rash and maculopapular rash (25.0%).
# [2] = Storage stability of crystal form; format: physicochemical
# Protocol: Compound (1) can exist in a crystal form having an x-ray diffraction pattern of least 5 diffraction angles)(20±0.2° selected from 7.7°, 9.5°, 10.3°, 12.3°, 14.5°, 15.6°, 16.3°, 17.8°, 18.3°, 19.3°, 20.9°, 22.8°, 24.2°, 25.7°, 26.8°, 27.7°, 29.0°, and 30.1° in a powder x-ray diffraction spectrum. Preferably the crystal form has peaks at diffraction angles)(20±0.2° 7.7°, 9.5°, 10.3°, 12.3°, 14.5°, 15.6°, 16.3°, 17.8°, 18.3°, 20.9°, 22.8°, 24.2°, 25.7°, 26.8°, 27.7°, 29.0°, and 30.1°. […] The method preparing this crystal form is described in U.S. Pat. No. 10,323,044 the content of which is incorporated herein in its entirety.
# [3] = Clearance / accumulation in the body; conditions: in vivo
# Description: A 4 days on and 3 days off cycle in a week is one such cycle, the cycle may be modified to accommodate patients having pharmacokinetics allowing for more days on or requiring more days off such as 5 days on and 2 days off or 3 days on and 4 days off or 6 days on and 1 day off, or 6 days on and 1 day off. The 4 days on and 3 days off regimen or a modified regimen may be repeated for a 21-day cycle or a longer cycle. For example, Compound (1) or its pharmaceutically acceptable salt may be administered consecutively on each of the following four days during a 21-day period: days 1 through 4, days 8 through 11, and days 15 through 18, with a prescribed rest on days 5 through 7, days 12 through 14, and days 19 through 21. Such intermittent administration is applicable also to the combination therapies where Compound (1) or its pharmaceutical acceptable salt is administered in combination with one or more agents.
# [4] = test system: endometrial cancer harboring PIK3CA mutation; ovarian clear cell carcinoma; assay: Objective response in patients given oral Compound (1); format: in vivo, human
# [5] = test system: tumor in patients with advanced cancer; assay: Phase 2 clinical study, tumor shrinkage / response; format: in vivo, human
# Protocol: as §1
# The reported shrinkages are over 50% for patient 100-006, about 10% for patients 100-009 and about 5% for patient 200-007.
compound,measurement,setting,value
C[C@]1(O)C[C@@](N)(c2ccc(-c3nc4n(c3-c3ccccc3)COc3ccncc3-4)cc2)C1 [Compound (1)],treatment-related Grade ≥3 AE: hyperglycemia,[1]; Grade ≥3,12.5%
same,treatment-related Grade ≥3 AE: mucositis oral,[1]; Grade ≥3,12.5%
same,treatment-related Grade ≥3 AE: neutrophil count decreased,[1]; Grade ≥3,12.5%
same,treatment-related Grade ≥3 AE: rash and maculopapular rash,[1]; Grade ≥3,25.0%
same,treatment-related AE: decreased appetite,[1]; any grade,18.8%
same,treatment-related AE: diarrhea,[1]; any grade,18.8%
same,treatment-related AE: fatigue,[1]; any grade,37.5%
same,treatment-related AE: hyperglycemia,[1]; any grade,31.3%
same,treatment-related AE: mucositis oral,[1]; any grade,18.8%
same,treatment-related AE: nausea,[1]; any grade,12.5%
same,treatment-related AE: pruritus,[1]; any grade,25.0%
same,"treatment-related AE: rash and maculopapular rash, patients","[1]; any grade, up to 20 mg QD / 24 mg intermittent",62.5%
same,safety profile,"[1]; up to 20 mg QD and 24 mg intermittent dosing, patients with advanced cancer",generally acceptable and clinically manageable
same,shelf life indicated,"[2]; room temperature, inferred from 40° C. six-month storage",24 month
same,stability on storage,[2]; stored at 40° C. for six months,good stability
same,clearance from the body,[3],not cleared from the body quickly but can accumulate in the body
same,patients with objective response,[4]; endometrial cancer harboring PIK3CA mutation,one
same,patients with objective response,[4]; ovarian clear cell carcinoma,3 patients
same,patients with tumor shrinkage,"[5]; of the 15 patients treated, PIDs 100-006, 200-005, 100-009, 200-007",4 patients
same,response in the target lesion (Lymph Node),[5]; patient 100-006,complete response
same,tumor shrinkage,[5]; patient 100-006,over 50%
same,tumor shrinkage,[5]; patient 100-009,about 10%
same,tumor shrinkage,[5]; patient 200-007,about 5%
